Seven molecules from ChEMBL document CHEMBL1201862, “PubChem BioAssay data set” (2004) can be followed below.

Some test systems named below: A549; OVCAR-4; U-251; SK-MEL-28; PC-3; SN12C; SK-MEL-5; HOP-92; RXF 393; SW-620; CAKI-1; M14; HCT-15; HT-29; OVCAR-3; MCF7; OVCAR-8; MDA-MB-231; SF-295; NCI-H522.
What all share (experiment): NCI anticancer screen, dose series, 48 h

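Protocol summary: plate cells (96-well), add compound at 5 concentrations, incubate 48 h, interpolate endpoints linearly. Here, GI50 denotes the concentration required for 50% inhibition of growth.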 The source made the active and inactive calls. Cut-off read from the data, not from the text of the source: active = GI50 up to about 1.1 µM and inactive = higher. Some results are limits rather than exact numbers.

Consider `CCc1nc(N)nc(N)c1-c1ccc(NC)c([N+](=O)[O-])c1`, for which the GI50 in the assay with A549 is 0.192 µM (active); in the assay with OVCAR-4 it was 15.5 µM (inactive); in the assay with U-251, 0.631 µM (active); with SK-MEL-28, 43.7 µM (inactive); with PC-3 it was 0.804 µM (active); in the assay on SN12C, 0.91 µM (active). Further, the GI50 in the assay with SK-MEL-5 is 0.63 µM (active); in the assay on HOP-92, 8.81 µM (inactive); in the assay with RXF 393, 16 µM (inactive); with SW-620, 0.481 µM (active); with CAKI-1, 0.767 µM (active); in the assay with M14 it was 0.959 µM (active). Further, the GI50 with HCT-15 is 0.398 µM; with HT-29, 0.44 µM (active); with OVCAR-3 it was 10.7 µM (inactive); in the assay with MCF7, 2.48 µM (inactive); in the assay on OVCAR-8 it was 0.662 µM (active); in the assay with MDA-MB-231, 27.2 µM (inactive). The GI50 is 0.753 µM (active) in the assay on SF-295 and 1.88 µM (inactive) in the assay with NCI-H522.
In the case of `CS(=O)(=O)N1CC(CCl)c2ccc([N+](=O)[O-])cc21` (stereo not given), the GI50 with A549 was > 100 µM (inactive); in the assay on OVCAR-4, > 100 µM (inactive); in the assay on U-251 it was 58.6 µM (inactive); with SK-MEL-28 it was > 100 µM (inactive); in the assay on PC-3 it was > 100 µM (inactive); in the assay on SN12C it was > 100 µM (inactive). In addition, the GI50 in the assay with SK-MEL-5, in the assay with HOP-92, in the assay on RXF 393, in the assay on SW-620, in the assay on CAKI-1 and in the assay with M14 was > 100 µM (inactive) each time. The GI50 was > 100 µM in the assay with HCT-15; > 100 µM (inactive) in the assay with HT-29; > 100 µM (inactive) with OVCAR-3; > 100 µM (inactive) with MCF7; > 100 µM (inactive) in the assay on OVCAR-8; > 100 µM (inactive) in the assay on MDA-MB-231. Moreover, the GI50 with SF-295 and in the assay with NCI-H522 was > 100 µM (inactive) in each case.
In the case of `O=C1NC(Cc2c[nH]c3ccccc23)C(=O)N2C(C3CCCCC3)c3[nH]c4ccccc4c3C[C@@H]12` (stereo not given in full), the GI50 in the assay with A549 was 10.9 µM (inactive); with OVCAR-4, 11.1 µM (inactive); in the assay with U-251 it was 11.4 µM (inactive); in the assay on SK-MEL-28, 16.4 µM (inactive); with PC-3 it was 7.05 µM (inactive); in the assay with SN12C it was 8.26 µM (inactive). The GI50 is 12.8 µM (inactive) with SK-MEL-5; 15.4 µM (inactive) with HOP-92; 5.98 µM (inactive) with RXF 393; 15.7 µM (inactive) with SW-620; 18.3 µM (inactive) with CAKI-1; 13.2 µM (inactive) in the assay on M14. The GI50 is 12.4 µM in the assay on HCT-15; 14.9 µM (inactive) with HT-29; 2.38 µM (inactive) in the assay with OVCAR-3; 9.08 µM (inactive) in the assay on MCF7; 14.6 µM (inactive) with OVCAR-8; 15.1 µM (inactive) with MDA-MB-231. Also, the GI50 in the assay on SF-295 is 24 µM (inactive); with NCI-H522, 7.98 µM (inactive).
`O=C1C(CN2CCCC2)CCC1CN1CCCC1` (stereo not given): the GI50 is > 100 µM (inactive) with A549; 20.7 µM (inactive) in the assay with OVCAR-4; > 100 µM (inactive) with U-251; 18.7 µM (inactive) with SK-MEL-28; 23.7 µM (inactive) in the assay on PC-3; 26.7 µM (inactive) in the assay on SN12C. In addition, the GI50 in the assay with SK-MEL-5 is 17.3 µM (inactive); in the assay on HOP-92, 14.4 µM (inactive); with RXF 393, 20.4 µM (inactive); in the assay with SW-620, 4.12 µM (inactive); in the assay with CAKI-1, 11 µM (inactive); in the assay on M14 it was 15.8 µM (inactive). Also, the GI50 with HCT-15 is 17.7 µM; in the assay with HT-29, 20 µM (inactive); with OVCAR-3, 17.1 µM (inactive); with MCF7, 19.4 µM (inactive); in the assay on OVCAR-8, 18.3 µM (inactive); with MDA-MB-231 it was 13.5 µM (inactive). Besides, the GI50 in the assay on SF-295 is > 100 µM (inactive); in the assay on NCI-H522 it was 1.9 µM (inactive).
For `NC(=O)NC1NC(=O)NC1=O` (stereo not given) [ALLANTOIN], the GI50 in the assay with A549, in the assay on OVCAR-4, in the assay with U-251, in the assay on SK-MEL-28, with PC-3 and with SN12C was > 100 µM (inactive) throughout. Also, the GI50 with SK-MEL-5, in the assay on HOP-92, with RXF 393, in the assay with SW-620, in the assay on CAKI-1 and in the assay with M14 was > 100 µM (inactive) each time. In addition, the GI50 with HCT-15 was > 100 µM; in the assay with HT-29, > 100 µM (inactive); in the assay on OVCAR-3, > 100 µM (inactive); in the assay with MCF7, > 100 µM (inactive); with OVCAR-8, > 100 µM (inactive); with MDA-MB-231, > 100 µM (inactive). Besides, the GI50 in the assay with SF-295 and with NCI-H522 was > 100 µM (inactive) throughout.
For `CN(C)C(=O)Nc1cc2c3c(c1)CCCN3CCC2`, the GI50 with A549, in the assay with OVCAR-4, in the assay with U-251, with SK-MEL-28, in the assay with PC-3 and in the assay on SN12C was > 10 µM (inactive) throughout. In addition, the GI50 in the assay with SK-MEL-5, with HOP-92, in the assay on RXF 393, with SW-620, in the assay with CAKI-1 and with M14 was > 10 µM (inactive) in each case. The GI50 was > 10 µM in the assay on HCT-15; > 10 µM (inactive) in the assay on HT-29; > 10 µM (inactive) in the assay with OVCAR-3; > 10 µM (inactive) in the assay on MCF7; > 10 µM (inactive) in the assay on OVCAR-8; > 10 µM (inactive) with MDA-MB-231. The GI50 in the assay with SF-295 and in the assay on NCI-H522 was > 10 µM (inactive) in each case.
For `CC(=O)c1cc2c(s1)C(=O)c1ccccc1C2=O`, the GI50 was 3.52 µM (inactive) with A549; 3.52 µM (inactive) in the assay on OVCAR-4; 2.37 µM (inactive) in the assay with U-251; 8.05 µM (inactive) with SK-MEL-28; 3.24 µM (inactive) in the assay on PC-3; 2.59 µM (inactive) in the assay with SN12C. In addition, the GI50 in the assay with SK-MEL-5 was 0.26 µM (active); with HOP-92 it was 4.18 µM (inactive); in the assay with RXF 393, 8.18 µM (inactive); in the assay on SW-620 it was 0.951 µM (active); with CAKI-1, 9.53 µM (inactive); with M14, 0.557 µM (active). The GI50 in the assay on HCT-15 is 0.61 µM; in the assay on HT-29 it was 3.4 µM (inactive); in the assay with OVCAR-3, 0.513 µM (active); in the assay with MCF7 it was 2.08 µM (inactive); with OVCAR-8 it was 1.74 µM (inactive); in the assay on MDA-MB-231, 3.13 µM (inactive). Also, the GI50 in the assay on SF-295 is 2.79 µM (inactive); in the assay on NCI-H522, 0.944 µM (active).
